The record followed here is patent US11407748B2, “Substituted pyrido[1,2-a]pyrimidines and pyrazino[1,2-a]pyrimidines for enhancing AMPA receptor function” (Takeda Pharmaceutical Company Limited, priority 2017, dated 2022).

Molecules are shown by their SMILES.

The experiment concerns the target T1, hGluR1 flip (Homo sapiens, UniProt P42261).
T1 construct: expressed in transfected cells; host or cells: CHO-K1
The experiment can be described thus: AMPA receptor function-enhancing activity using calcium influx as index. The class given is cell-based. As to conditions: test compound 30 μM with 3 mM glutamic acid; CHO-K1/GluR1 flip/stargazin-expressing cells; 100% = 3 mM glutamic acid + 300 μM cyclothiazide, 0% = 3 mM glutamic acid alone. The text has this: Experimental Example 1 Measurement Method of AMPA Receptor Function-Enhancing Activity of Compound Using Calcium Influx as Index
(1) Construction of Expression Gene
Human GluR^1 flip cDNA was amplified by PCR method using forward primer […] (SEQ ID NO: 1) and reverse primer […] (SEQ ID NO: 2) artificially synthesized using human brain-derived cDNA (BD Bioscience) as a template. The amplified product was digested with restriction enzymes EcoRI, NotI (TAKARA SHUZO CO. LTD.) and incorporated into the same site of pcDNA3.1 (+) (Invitrogen) to construct pcDNA3.1(+)/human GluR1 flip gene. Human stargazin cDNA was amplified by PCR method using forward primer […] (SEQ ID NO: 3) and reverse primer […] (SEQ ID NO: 4) artificially synthesized using human hippocampus cDNA as a template. The amplified product was digested with restriction enzymes XhoI, BamHI (TAKARA SHUZO CO. LTD.) and incorporated into the same site of pcDNA3.1(−) (Invitrogen) to construct pcDNA3.1 Zeo(−)/human stargazing gene.
(2) Construction of GluR1 Flip/Stargazin Expressing Cell
CHO-K1 cells passaged in a culture medium (Ham's F12 medium (Invitrogen) added with 10% inactivated fetal bovine serum (Morgate) and penicillin, streptomycin (Invitrogen)) were detached using 0.05% trypsin and 0.53 mM EDTA (Invitrogen) diluted with D-PBS(−). The detached cells were suspended in a culture medium, and recovered by centrifugation at 1,000 rpm. The recovered cells were re-suspended in D-PBS(−) and added into 0.4 cm electroporation cuvette (BioRad). pcDNA3.1(+)/human GluR1 flip gene (5 μg) and pcDNA3.1 Zeo(−)/human stargazin gene (15 μg) were added, and introduced into CHO-K1 cells under the conditions of 950 μFd, […] and using Gene Pulser II (BioRad). The introduced cells were cultured overnight in a culture medium. The next day, using a selection medium (culture medium added with zeocin (Invitrogen) at 250 μg/mL), the cells were plated in a 96 well plate at 250 cells/well. The clones showing drug resistance were selected, and GluR1 flip/stargazin expression clones were selected by an assay method shown below using calcium influx as an index.
(3) Measurement Method of AMPA Receptor Function-Enhancing Activity of Compound, Using Calcium Influx as an Index
CHO-K1/GluR1 flip/stargazin-expressing cells were plated on a 384 well black bottom transparent plate, and cultured for 2 days in a CO2 incubator (SANYO ELECTRIC Co. Ltd.) at 37° C. The medium of the cell plate was removed. A calcium indicator (Calcium5 Assay Kit, Molecular Devices) was diluted with an assay buffer (HESS (Thermo Fisher Scientific), 0.1% BSA (Merck Millipoer) and 10 mM HEPES (Thermo Fisher Scientific)), and 1.25 mM probenecid (Dojindo Laboratories) was added thereto. The mixture prepared above was added at 30 μL/well (100 μL/well in case of 96 wells) to the well, and the well was left standing in 37° C., CO2 incubator for 1 hr. The cell plate was set in CellLux (PerkinElmer), a mixture (15 μL) (50 μL/well in case of 96 wells) of 9 mM glutamic acid (final concentration 3 mM) diluted with an assay buffer and a test compound (test compound concentration 30 μM) was added thereto, and variation in the amount of fluorescence was measured for 3 min. The variation of fluorescence level of a well added with final concentration 3 mM of glutamic acid and 300 μM cyclothiazide (TOCRIS) was defined as 100%, the variation of fluorescence level of a well added with final concentration 3 mM of glutamic acid alone was defined as 0%, and the activity of the compound was calculated by the following formula. activity (%)=(X−C)/(T−C)×100 • T: variation of fluorescence level of well added with final concentration 3 mM of glutamic acid and 300 μM cyclothiazide • C: variation of fluorescence level of well added with final concentration 3 mM of glutamic acid alone • X: variation of fluorescence level of well added with test compound

T1 sequence (P42261 19-906 isoform P42261-2 limits assumed): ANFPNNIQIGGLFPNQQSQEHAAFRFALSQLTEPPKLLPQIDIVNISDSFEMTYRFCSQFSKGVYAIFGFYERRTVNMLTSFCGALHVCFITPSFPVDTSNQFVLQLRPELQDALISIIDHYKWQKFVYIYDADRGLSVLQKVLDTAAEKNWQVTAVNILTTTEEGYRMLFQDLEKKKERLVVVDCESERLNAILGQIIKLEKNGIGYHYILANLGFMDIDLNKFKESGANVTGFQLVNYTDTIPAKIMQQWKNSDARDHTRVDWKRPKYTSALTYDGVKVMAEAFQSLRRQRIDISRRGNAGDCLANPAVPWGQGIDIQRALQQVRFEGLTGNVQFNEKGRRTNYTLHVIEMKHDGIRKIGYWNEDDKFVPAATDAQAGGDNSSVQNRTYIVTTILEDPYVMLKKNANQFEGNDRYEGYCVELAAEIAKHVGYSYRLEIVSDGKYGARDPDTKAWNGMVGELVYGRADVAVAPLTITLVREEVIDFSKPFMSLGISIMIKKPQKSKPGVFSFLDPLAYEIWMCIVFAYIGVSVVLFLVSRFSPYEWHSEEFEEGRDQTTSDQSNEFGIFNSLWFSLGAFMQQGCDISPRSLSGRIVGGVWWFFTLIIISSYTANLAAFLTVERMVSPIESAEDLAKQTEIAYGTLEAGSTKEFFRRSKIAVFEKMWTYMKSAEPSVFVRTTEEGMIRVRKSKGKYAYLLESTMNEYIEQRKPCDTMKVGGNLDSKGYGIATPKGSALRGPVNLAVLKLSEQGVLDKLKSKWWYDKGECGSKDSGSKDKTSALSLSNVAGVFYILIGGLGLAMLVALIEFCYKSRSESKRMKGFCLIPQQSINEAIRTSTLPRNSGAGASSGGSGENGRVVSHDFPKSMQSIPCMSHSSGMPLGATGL
T1 sequence (Q9Y698 whole entry partner): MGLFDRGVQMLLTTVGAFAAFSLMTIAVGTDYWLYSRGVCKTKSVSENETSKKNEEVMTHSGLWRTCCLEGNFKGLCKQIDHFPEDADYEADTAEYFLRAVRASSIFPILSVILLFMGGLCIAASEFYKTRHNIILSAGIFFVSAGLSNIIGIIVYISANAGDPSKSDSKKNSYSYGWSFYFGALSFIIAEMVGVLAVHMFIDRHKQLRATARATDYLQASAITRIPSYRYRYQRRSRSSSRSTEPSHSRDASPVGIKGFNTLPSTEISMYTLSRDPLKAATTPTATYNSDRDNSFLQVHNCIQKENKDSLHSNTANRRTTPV

With `O=C(c1ccc(-c2cccn3c(=O)cc(C(F)(F)F)nc23)cc1F)N1CCOCC1` [Example 44, 9-(3-fluoro-4-(morpholin-4-ylcarbonyl)phenyl)-2-(trifluoromethyl)-4H-pyrido[1,2-a]pyrimidin-4-one], the activation at 30 µM worked out at 73.8%.

As for `O=C(c1ccc(-c2cccn3c(=O)c(Br)c(C(F)(F)F)nc23)cc1)N1CCCC1` [Example 62, 3-bromo-9-(4-(pyrrolidin-1-ylcarbonyl)phenyl)-2-(trifluoromethyl)-4H-pyrido[1,2-a]pyrimidin-4-one], the activation at 30 µM came to 76.9%.

As to `COCCNC(=O)c1ccc(-c2cccn3c(=O)c(Br)c(C(F)(F)F)nc23)cc1F` [Example 72, 4-(3-bromo-4-oxo-2-(trifluoromethyl)-4H-pyrido[1,2-a]pyrimidin-9-yl)-2-fluoro-N-(2-methoxyethyl)benzamide], the activation at 30 µM turned out to be 76.4%.

Regarding `Cc1c(C(F)(F)F)nc2c(-c3ccc(C(=O)N4CCO[C@@H](C)C4)cc3)cccn2c1=O` [Example 67, 3-methyl-9-(4-(((2S)2-methylmorpholin-4-yl)carbonyl)phenyl)-2-(trifluoromethyl)-4H-pyrido[1,2-a]pyrimidin-4-one], the activation at 30 µM worked out at 73.5%.

Consider `CN(CCC#N)C(=O)c1ccc(-c2cccn3c(=O)c(Cl)c(C(F)(F)F)nc23)cc1` [Example 39, 4-(3-chloro-4-oxo-2-(trifluoromethyl)-4H-pyrido[1,2-a]pyrimidin-9-yl)-N-(2-cyanoethyl)-N-methylbenzamide], for which the activation at 30 µM is 85.9%.

With `O=C(c1ccc(-c2cccn3c(=O)cc(C(F)(F)F)nc23)cc1)N1CCC(O)C(F)(F)C1` (stereo not drawn) [Example 10, 9-(4-((3,3-difluoro-4-hydroxypiperidin-1-yl)carbonyl)phenyl)-2-(trifluoromethyl)-4H-pyrido[1,2-a]pyrimidin-4-one], the activation at 30 µM is 72.7%.

`CN(CCC#N)C(=O)c1ccc(-c2cccn3c(=O)c(Br)c(C(F)(F)F)nc23)cc1` [Example 99, 4-(3-bromo-4-oxo-2-(trifluoromethyl)-4H-pyrido[1,2-a]pyrimidin-9-yl)-N-(2-cyanoethyl)-N-methylbenzamide]: the activation at 30 µM worked out at 76.9%.

`O=C(c1ccc(-c2cccn3c(=O)c(Br)c(C(F)(F)F)nc23)cc1F)N1CC(F)(F)C1` [Example 130, 3-bromo-9-(4-((3,3-difluoroazetidin-1-yl)carbonyl)-3-fluorophenyl)-2-(trifluoromethyl)-4H-pyrido[1,2-a]pyrimidin-4-one]: the activation at 30 µM turned out to be 96%.

With `O=C(N[C@H]1CCCOC1)c1ccc(-c2cccn3c(=O)c(Cl)c(C(F)(F)F)nc23)cc1` [Example 132, 4-(3-chloro-4-oxo-2-(trifluoromethyl)-4H-pyrido[1,2-a]pyrimidin-9-yl)-N-((3S)-tetrahydro-2H-pyran-3-yl)benzamide], the activation at 30 µM stood at 106%.

With `O=C(c1ccc(-c2cccn3c(=O)c(Br)c(C(F)(F)F)nc23)cc1)N1CCOC(C(F)F)C1` (stereo not drawn) [Example 113, 3-bromo-9-(4-((2-(difluoromethyl)morpholin-4-yl)carbonyl)phenyl)-2-(trifluoromethyl)-4H-pyrido[1,2-a]pyrimidin-4-one], the “hGluR1 flip/30 μM (%)” value is reported as 78.7%.

In the case of `Cc1c(C(F)(F)F)nc2c(-c3ccc(C(=O)N4CCOC(C(F)F)C4)cc3)cccn2c1=O` (stereo not drawn) [Example 106, 9-(4-((2-(difluoromethyl)morpholin-4-yl)carbonyl)phenyl)-3-methyl-2-(trifluoromethyl)-4H-pyrido[1,2-a]pyrimidin-4-one], the “hGluR1 flip/30 μM (%)” value came to 85.9%.

As to `O=C(c1ccc(-c2cccn3c(=O)c(Br)c(C(F)(F)F)nc23)cc1)N1CCOC2CC21` (stereo not drawn) [Example 127, 3-bromo-9-(4-(2-oxa-5-azabicyclo[4.1.0]hept-5-ylcarbonyl)phenyl)-2-(trifluoromethyl)-4H-pyrido[1,2-a]pyrimidin-4-one], the activation at 30 µM is 74.7%.
